Read-outs that look alike come from different tables or passages of the source.
Columns and labels:
HL60 (human leukaemia) = assay: Cytotoxicity in vitro, cellular viability (ATPlite Perkin Elmer test), HL60; type: cell-based; conditions: for GI50: Homo sapiens
Experimental: (§1) The cytotoxic effects of the compounds of formula (A) were evaluated by treating […] with different concentrations of the compounds under screening. The following cell lines were used: A2780 (human ovarian carcinoma), HL60 (human leukaemia), C6 (rat glioma) and HT29 (adenocarcinoma of human colon). The cell lines have been obtained by ECACC (European Collection of Cell Cultures).
(§2) The cell lines have been cultured in 75 cm^2 flasks with culture medium DMEM (Dulbecco's Medium Eagle Modified, Sigma Aldrich®) and the following additives (Sigma Aldrich®): L-Glutamine 2 mM, 10% Fetal Bovine Serum, Penicillin/-Streptomycin, Fungizone, Gentamycin. The incubation was carried out in modified atmosphere incubators (37° C., 5% CO2). When cell confluence was obtained, the cells were propagated by dilution in a ratio 1:3/1:5 by using a Trypsin-EDTA 1× solution and then transferred into 96 well plates in the suitable culture medium. The cells were then treated for 72 hours with different concentrations (10^−13+10^−4 M) of the compounds under examination. For the tests in vitro the compounds obtained in the examples 1.15 and 6.8 were solubilised in dimethylsulphoxide (DMSO). All the tests were performed with a constant DMSO concentration equal to 0.1% by weight.
(§3) In order to control the cellular viability, the ATPlite test (Perkin Elmer) was used. The APTlite test evaluates the ATP production. APT is a marker of cellular viability as it is present in all the metabolically active cells. The test’ is based on the chemiluminiscence due to the ATP reaction with the luciferase and the D-luciferin. The emitted light is proportional to the ATP concentration. For the reading the Victor 3 instrument by Perkin Elmer was used.
(§4) Four readings were taken for each sample solution. The results (average values) for the cytotoxicity of the compounds of formula (A) obtained in examples 1.15 and 6.8 are reported respectively in Tables 1 and 2. It is noted that the GI50 values determined by means of the cellular viability values are lower than 2 nM. This confirms the high cytotoxicity of the compound of formula (A).

C6 (rat glioma) = assay: Cytotoxicity in vitro, cellular viability (ATPlite Perkin Elmer test), C6; type: cell-based; conditions: Rattus norvegicus; cellular line C6; read-out: GI50
Experimental: as §1, §2, §3, §4

[1] = tested on: A2780 (human ovarian carcinoma); assay: Cytotoxicity in vitro, cellular viability (ATPlite Perkin Elmer test), A2780; type: cell-based; conditions: Homo sapiens, cellular line A 2780, read-out: GI50
Experimental: as §1, §2, §3, §4

[2] = tested on: cellular lines HL60, A 2780, C6; assay: Cytotoxicity test in vitro on cellular lines (comparative examples 16.10, 17.10); type: cell-based, human; rat
Experimental: as §1
The cell lines have been cultured in 75 cm^2 flasks with culture medium DMEM (Dulbecco's Medium Eagle Modified, Sigma Aldrich®) and the following additives (Sigma Aldrich®): L-Glutamine 2 mM, 10% Fetal Bovine Serum, Penicillin/-Streptomycin, Fungizone, Gentamycin. The incubation was carried out in modified atmosphere incubators (37° C., 5% CO2). When cell confluence was obtained, the cells were propagated by dilution in a ratio 1:3/1:5 by using a Trypsin-EDTA 1× solution and then transferred into 96 well plates in the suitable culture medium. […]
In order to control the cellular viability, the ATPlite test (Perkin Elmer) was used. […] For the reading the Victor 3 instrument by Perkin Elmer was used.
The compound obtained in example 16.9 has been evaluated with the cytotoxicity test in vitro on cellular lines. […]
The cytotoxicity of the compound of the example 17.9 comparative was evaluated as described in example 16.10 comparative for the compound 16.9.

CC[C@H](C)[C@H](NC(=O)[C@H]1CCCCN1C)C(=O)N(CCOC)[C@H](C[C@@H](OC(C)=O)c1nc(C(=O)NC)cs1)C(C)C [Example 15.4, (1R,3R)-3-((2S,3S)—N-(2-methoxyethyl)-3-methyl-2-((R)-1-methylpiperidine-2-carboxamido)pentanamido)-4-methyl-1-(4-(methylcarbamoyl)thiazol-2-yl)pentyl acetate, reference compound]
cell viability (HL60 (human leukaemia); HL60, concentration of 10^−10 mole/liter): 96% | cell viability (HL60 (human leukaemia); HL60, concentration of 10^−11 mole/liter): 99.8% | times less toxic than the compounds of the present invention (HL60 (human leukaemia); HL60, ratio of GI50 values): 10^3 times | GI50 (HL60 (human leukaemia); HL-60, HL60, read-out: citotoxicity, expressed as GI50): 0.01 µM

CC[C@H](C)[C@H](NC(=O)C1CCCCN1C)C(=O)N[C@H](C[C@@H](OC(C)=O)c1nc(C(=O)N[C@@H](Cc2ccccc2)C[C@H](C)C(=O)O)cs1)c1ccc(OC)cc1 (stereo partly drawn) [Example 16.9, (2S,4R)-4-(2-((1R,3R)-1-acetoxy-3-(4-methoxy-phenyl)-3-((2S,3S)-3-methyl-2-((R)-1-methylpiperidin-2-carbox-amido)pentanamido)propyl)thiazol-4-carboxamido)-2-methyl-5-phenylpentanoic acid, reference compound]
GI50 (C6 (rat glioma)): > 10 µM | GI50 [1]: > 100 µM | GI50 (HL60 (human leukaemia); cellular line HL 60, read-out: GI50): > 10 µM

CC[C@H](C)[C@H](NC(=O)[C@H]1CCCCN1C)C(=O)N[C@H](C[C@@H](OC(C)=O)c1nc(C(=O)N[C@@H](Cc2ccccc2)C[C@H](C)C(=O)O)cs1)C1CCCCC1 [Example 17.9, (2S,4R)-4-(2-((1R,3R)-1-acetoxy-3-cyclohexyl-3-((2S,3S)-3-methyl-2-((R)-1-methyl-piperidin-2-carboxamido)pentanamido)propyl)thiazol-4-carboxamido)-2-methyl-5-phenyl pentanoic acid]
GI50 ([2]; Homo sapiens, HL60/A, evaluated as in example 16.10, cellular line not stated): 10 µM | times higher than the GI50 of the compounds of the invention ([2]; ratio of GI50 values): 10,000 times

Reference: US8580820B2, “Tubulysin compounds with high cytotoxicity, pharmaceutical compositions thereof, and method of use thereof” (Kemtech S.r.L., priority 2009, dated 2013)
